Measured values from ChEMBL document CHEMBL1201862, “PubChem BioAssay data set” (2004).
Active and inactive are the calls of the source.

Legend:
[1] = target: T1, Polyadenylate-binding protein 1 (Homo sapiens, UniProt P11940); assay: MLLE domain peptide-binding blockers, IC50 – biochemical, fluorescence polarization, FITC-PAM2 peptide, dose response (AID 602259); assay type: functional; conditions: read-out: IC50_Mean
[2] = target: T2, Mannose-6-phosphate isomerase (Homo sapiens, UniProt P34949); assay: MPI inhibition at elevated mannose 6-phosphate – biochemical, fluorescence intensity, high mannose 6-phosphate, primary screen (AID 1220)
T2 sequence (P34949 whole entry): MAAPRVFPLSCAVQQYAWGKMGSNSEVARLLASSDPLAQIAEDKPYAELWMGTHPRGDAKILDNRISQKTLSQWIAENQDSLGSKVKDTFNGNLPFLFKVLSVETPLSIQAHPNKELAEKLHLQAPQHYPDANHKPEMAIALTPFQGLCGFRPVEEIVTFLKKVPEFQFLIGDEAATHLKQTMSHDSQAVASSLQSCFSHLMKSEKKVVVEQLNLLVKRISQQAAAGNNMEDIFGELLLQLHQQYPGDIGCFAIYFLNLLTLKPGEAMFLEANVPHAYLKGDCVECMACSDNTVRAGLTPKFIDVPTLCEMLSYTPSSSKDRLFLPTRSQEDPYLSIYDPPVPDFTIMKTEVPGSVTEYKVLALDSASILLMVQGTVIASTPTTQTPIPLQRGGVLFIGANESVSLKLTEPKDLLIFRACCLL

[3] = target: T1, Polyadenylate-binding protein 1; assay: MLLE binding blockers, Cy5 peptide tracer – biochemical, fluorescence polarization, Cy5-PAM2 peptide, secondary, miRNA deadenylation inhibitor project, dose response (AID 602260); assay type: functional; conditions: read-out: IC50_Mean
Vero = assay: viability of Vero cells under compound – cytotoxicity control for flavivirus capping enzyme inhibitors (AID 588742); assay type: functional; conditions: Chlorocebus sabaeus
[4] = blockers of HIV-1 ZM109 envelope-driven cell-cell fusion – HeLa effector, CEM target cells, luciferase, cherry-pick, dose response (AID 652058); assay type: functional, cell-based;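 further: luciferase signal from HIV-1 Env mediated cell-cell fusion of effector and target cells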
[5] = HIV-1 AD8 envelope cell-cell fusion blockers – cherry-pick, dose response (AID 652062); assay type: functional, cell-based;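 further: luciferase signal from cell-cell fusion driven by HIV-1 clade B AD8 Env; potency is for inhibitors of fusion seen as a drop in luminescence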
[6] = blockers of HIV-1 envelope-mediated cell-cell fusion – cherry-pick, dose response (AID 652057); assay type: functional, cell-based
[7] = tested on: Streptococcus sp. 'group A'; assay: Streptococcus pyogenes SK(-)GAS viability under kanamycin – luminescence, BacTiterGlo, confirmation, counter-screen for streptokinase expression inhibitor project, dose response (AID 1900); assay type: functional, organism-based
Streptococcus = assay: GAS UMAA2166 growth inhibition – luminescence, BacTiterGlo, counter-screen for streptokinase expression inhibitor project, dose response (AID 1915); assay type: functional, organism-based;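 further: potency for reduction of bacterial viability or growth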
Aminopeptidase N = target: T3, Aminopeptidase N (Plasmodium falciparum FcB1/Columbia, UniProt O96935); assay: malaria alanyl aminopeptidase activity blockers – biochemical, fluorogenic H-Leu-NHMec substrate, 1536-well (AID 1445); parameters: species or system Plasmodium falciparum 3D7, 3D7
T3 sequence (O96935 whole entry): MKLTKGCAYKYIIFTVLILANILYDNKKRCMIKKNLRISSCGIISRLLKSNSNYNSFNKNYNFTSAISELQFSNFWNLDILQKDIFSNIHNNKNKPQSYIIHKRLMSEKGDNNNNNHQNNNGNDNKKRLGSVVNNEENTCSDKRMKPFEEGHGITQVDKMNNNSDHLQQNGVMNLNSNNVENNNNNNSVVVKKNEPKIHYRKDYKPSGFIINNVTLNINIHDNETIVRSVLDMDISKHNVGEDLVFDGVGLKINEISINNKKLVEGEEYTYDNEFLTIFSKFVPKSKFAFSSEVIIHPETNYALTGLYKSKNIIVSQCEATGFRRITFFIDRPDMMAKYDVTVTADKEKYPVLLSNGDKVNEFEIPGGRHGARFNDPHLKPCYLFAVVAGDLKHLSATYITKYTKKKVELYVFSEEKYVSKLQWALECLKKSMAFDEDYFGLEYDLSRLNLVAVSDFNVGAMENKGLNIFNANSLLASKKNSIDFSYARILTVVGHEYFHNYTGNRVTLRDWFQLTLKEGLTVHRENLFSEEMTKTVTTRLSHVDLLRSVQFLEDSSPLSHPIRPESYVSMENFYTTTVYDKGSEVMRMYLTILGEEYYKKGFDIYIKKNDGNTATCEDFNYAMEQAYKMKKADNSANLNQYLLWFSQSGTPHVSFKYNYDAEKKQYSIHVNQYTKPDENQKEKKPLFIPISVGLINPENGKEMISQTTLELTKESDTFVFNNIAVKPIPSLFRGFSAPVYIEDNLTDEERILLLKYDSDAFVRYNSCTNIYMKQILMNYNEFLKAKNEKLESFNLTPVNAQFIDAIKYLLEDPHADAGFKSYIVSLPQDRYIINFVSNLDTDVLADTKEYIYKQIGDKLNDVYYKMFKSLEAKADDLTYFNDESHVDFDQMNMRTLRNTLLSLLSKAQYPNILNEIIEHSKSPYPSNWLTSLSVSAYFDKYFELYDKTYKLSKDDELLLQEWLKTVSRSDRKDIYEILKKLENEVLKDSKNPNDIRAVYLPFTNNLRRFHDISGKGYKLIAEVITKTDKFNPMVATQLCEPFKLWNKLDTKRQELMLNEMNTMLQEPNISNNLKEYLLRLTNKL

[8] = target: T4, Replicative DNA helicase DnaB (Mycobacterium tuberculosis, UniProt P9WMR3); assay: DnaB intein splicing inhibitors, dose response, biochemical, cell-free fluorescence (AID 449749); assay type: functional
T4 sequence (P9WMR3 whole entry): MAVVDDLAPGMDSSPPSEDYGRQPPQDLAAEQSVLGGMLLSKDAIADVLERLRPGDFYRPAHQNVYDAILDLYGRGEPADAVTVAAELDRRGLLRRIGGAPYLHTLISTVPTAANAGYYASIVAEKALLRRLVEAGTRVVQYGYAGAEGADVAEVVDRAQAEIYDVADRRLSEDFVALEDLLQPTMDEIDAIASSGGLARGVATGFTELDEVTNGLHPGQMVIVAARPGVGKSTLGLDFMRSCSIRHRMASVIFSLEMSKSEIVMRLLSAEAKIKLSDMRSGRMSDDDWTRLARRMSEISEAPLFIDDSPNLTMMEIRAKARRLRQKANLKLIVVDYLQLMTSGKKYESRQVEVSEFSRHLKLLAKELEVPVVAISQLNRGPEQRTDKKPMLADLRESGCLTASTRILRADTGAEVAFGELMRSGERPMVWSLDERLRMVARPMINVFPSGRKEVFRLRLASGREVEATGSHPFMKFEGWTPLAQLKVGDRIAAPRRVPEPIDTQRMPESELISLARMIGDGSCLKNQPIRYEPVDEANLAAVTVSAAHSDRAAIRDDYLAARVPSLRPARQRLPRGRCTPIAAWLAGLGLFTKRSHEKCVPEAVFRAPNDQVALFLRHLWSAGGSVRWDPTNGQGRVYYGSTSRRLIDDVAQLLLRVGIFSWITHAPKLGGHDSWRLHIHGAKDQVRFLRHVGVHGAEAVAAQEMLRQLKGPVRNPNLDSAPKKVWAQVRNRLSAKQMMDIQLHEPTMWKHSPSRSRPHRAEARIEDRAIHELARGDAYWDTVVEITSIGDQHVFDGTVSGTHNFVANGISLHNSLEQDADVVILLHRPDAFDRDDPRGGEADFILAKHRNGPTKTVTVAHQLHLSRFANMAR

Protein RecA = target: T5, Protein RecA (Mycobacterium tuberculosis, UniProt P9WHJ3); assay: Fluorescence Cell-Free Homogeneous Dose Retest to Identify Inhibitors of RecA-Intein Splicing Activity. [Related pubchem assays (depositor defined):AID2097, AID2223, AID489010, AID492950]; assay type: functional
T5 sequence (P9WHJ3 whole entry): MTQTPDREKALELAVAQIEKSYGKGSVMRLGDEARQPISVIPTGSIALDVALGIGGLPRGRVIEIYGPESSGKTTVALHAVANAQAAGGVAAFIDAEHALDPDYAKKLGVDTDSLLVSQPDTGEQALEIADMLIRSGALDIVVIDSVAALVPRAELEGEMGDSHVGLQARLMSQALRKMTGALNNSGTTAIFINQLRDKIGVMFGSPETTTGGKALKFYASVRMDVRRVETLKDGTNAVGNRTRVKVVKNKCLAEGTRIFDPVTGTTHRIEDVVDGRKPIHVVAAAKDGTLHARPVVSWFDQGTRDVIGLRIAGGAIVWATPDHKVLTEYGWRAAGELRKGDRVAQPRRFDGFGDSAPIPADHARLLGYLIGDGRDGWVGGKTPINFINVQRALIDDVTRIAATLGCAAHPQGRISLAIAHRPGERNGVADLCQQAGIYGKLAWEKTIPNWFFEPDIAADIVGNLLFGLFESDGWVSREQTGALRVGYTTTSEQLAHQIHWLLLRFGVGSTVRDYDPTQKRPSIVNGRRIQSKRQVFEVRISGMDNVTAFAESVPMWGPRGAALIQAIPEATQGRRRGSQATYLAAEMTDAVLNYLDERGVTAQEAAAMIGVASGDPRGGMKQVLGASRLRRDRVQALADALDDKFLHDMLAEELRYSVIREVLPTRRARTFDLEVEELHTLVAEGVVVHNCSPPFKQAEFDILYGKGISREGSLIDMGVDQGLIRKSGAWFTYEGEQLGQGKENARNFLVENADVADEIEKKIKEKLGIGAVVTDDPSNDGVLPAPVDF

Beta-galactosidase = Beta-galactosidase (Escherichia coli, UniProt Q8VNN2); assay: Dose response counterscreen for EBI2 assay utilizing the enzyme, b-galactosidase.; assay type: functional
Fatty acid synthase [9] = target: T6, Fatty acid synthase (Homo sapiens, UniProt P49327); assay: inhibition of human FAS-TE enzyme activity – biochemical, kinetic fluorescence intensity, dose response (AID 624326); assay type: functional;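 further: rate of fluorescence rise from hydrolysis of a fluorogenic O-methyl fluorescein ester substrate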
Fatty acid synthase [10] = target: T6, Fatty acid synthase; assay: inhibition of human FAS-TE enzyme activity – biochemical, endpoint fluorescence intensity, uHTS hits, dose response (AID 624327); assay type: functional;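 further: fluorescence from hydrolysis of an O-methyl fluorescein acyl ester substrate by the enzyme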
Estrogen receptor beta [11] = target: T7, Estrogen receptor beta (Homo sapiens, UniProt Q92731);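 further: recombinant ER-beta bound to coactivator SRC1 peptide in presence of estradiol agonist; inhibitors block coactivator peptide binding and lower the FRET signal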
Estrogen receptor beta [12] = target: T7, Estrogen receptor beta; assay: blockers of SRC-3 recruitment to ERβ – biochemical, ELISA, streptavidin-HRP readout, orthogonal assay, confirmation (AID 1060)
Leucine aminopeptidase = target: T8, Leucine aminopeptidase (Plasmodium falciparum 3D7, UniProt Q8IL11); assay: P. falciparum M17LAP inhibitors, primary screen, biochemical, fluorogenic H-Leu-NHMec substrate, 1536-well (AID 1619); assay type: functional
T8 sequence (Q8IL11 whole entry): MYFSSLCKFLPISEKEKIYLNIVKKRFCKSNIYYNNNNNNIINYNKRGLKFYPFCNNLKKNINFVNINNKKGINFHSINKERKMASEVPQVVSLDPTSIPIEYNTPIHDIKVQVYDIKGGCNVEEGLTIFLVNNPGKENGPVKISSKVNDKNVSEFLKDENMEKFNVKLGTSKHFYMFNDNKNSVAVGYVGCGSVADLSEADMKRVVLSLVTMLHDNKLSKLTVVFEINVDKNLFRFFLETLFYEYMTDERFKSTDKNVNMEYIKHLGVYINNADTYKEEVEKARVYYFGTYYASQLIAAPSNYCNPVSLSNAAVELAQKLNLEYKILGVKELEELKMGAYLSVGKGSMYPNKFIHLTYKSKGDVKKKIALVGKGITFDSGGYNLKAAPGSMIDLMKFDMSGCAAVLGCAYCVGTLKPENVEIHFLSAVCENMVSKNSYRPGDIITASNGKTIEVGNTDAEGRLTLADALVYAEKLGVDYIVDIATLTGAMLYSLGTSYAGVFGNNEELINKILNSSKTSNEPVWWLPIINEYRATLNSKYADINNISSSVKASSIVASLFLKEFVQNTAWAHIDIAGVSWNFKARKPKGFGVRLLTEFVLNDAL

Sequence of Beta-galactosidase (Q8VNN2 whole entry): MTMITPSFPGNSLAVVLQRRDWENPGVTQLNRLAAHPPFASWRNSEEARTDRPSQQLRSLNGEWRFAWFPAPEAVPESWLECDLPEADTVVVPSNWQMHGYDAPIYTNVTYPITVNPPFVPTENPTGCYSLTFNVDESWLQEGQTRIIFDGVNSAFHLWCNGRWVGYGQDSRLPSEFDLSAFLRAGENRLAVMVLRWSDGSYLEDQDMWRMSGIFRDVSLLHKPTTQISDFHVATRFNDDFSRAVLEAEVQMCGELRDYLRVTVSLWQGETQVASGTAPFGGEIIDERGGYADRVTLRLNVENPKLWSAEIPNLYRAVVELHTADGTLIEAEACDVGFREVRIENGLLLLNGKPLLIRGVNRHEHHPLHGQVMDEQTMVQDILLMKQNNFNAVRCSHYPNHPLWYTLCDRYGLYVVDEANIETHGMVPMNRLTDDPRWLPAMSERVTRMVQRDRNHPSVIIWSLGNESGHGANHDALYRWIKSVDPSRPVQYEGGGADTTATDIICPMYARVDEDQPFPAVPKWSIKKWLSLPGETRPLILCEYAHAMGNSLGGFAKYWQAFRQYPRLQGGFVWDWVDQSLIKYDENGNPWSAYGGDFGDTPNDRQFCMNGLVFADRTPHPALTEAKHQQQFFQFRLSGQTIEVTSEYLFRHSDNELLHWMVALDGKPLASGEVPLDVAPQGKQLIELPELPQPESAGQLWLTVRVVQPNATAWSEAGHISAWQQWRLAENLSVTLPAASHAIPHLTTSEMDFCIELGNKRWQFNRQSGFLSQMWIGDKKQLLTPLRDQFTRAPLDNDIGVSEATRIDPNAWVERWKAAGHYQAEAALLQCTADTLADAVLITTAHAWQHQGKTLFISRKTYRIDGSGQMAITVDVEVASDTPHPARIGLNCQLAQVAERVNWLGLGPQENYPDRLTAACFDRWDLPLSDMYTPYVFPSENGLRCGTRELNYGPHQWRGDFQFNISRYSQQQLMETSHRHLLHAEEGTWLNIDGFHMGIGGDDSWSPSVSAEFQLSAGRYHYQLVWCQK
T6 sequence (P49327 whole entry): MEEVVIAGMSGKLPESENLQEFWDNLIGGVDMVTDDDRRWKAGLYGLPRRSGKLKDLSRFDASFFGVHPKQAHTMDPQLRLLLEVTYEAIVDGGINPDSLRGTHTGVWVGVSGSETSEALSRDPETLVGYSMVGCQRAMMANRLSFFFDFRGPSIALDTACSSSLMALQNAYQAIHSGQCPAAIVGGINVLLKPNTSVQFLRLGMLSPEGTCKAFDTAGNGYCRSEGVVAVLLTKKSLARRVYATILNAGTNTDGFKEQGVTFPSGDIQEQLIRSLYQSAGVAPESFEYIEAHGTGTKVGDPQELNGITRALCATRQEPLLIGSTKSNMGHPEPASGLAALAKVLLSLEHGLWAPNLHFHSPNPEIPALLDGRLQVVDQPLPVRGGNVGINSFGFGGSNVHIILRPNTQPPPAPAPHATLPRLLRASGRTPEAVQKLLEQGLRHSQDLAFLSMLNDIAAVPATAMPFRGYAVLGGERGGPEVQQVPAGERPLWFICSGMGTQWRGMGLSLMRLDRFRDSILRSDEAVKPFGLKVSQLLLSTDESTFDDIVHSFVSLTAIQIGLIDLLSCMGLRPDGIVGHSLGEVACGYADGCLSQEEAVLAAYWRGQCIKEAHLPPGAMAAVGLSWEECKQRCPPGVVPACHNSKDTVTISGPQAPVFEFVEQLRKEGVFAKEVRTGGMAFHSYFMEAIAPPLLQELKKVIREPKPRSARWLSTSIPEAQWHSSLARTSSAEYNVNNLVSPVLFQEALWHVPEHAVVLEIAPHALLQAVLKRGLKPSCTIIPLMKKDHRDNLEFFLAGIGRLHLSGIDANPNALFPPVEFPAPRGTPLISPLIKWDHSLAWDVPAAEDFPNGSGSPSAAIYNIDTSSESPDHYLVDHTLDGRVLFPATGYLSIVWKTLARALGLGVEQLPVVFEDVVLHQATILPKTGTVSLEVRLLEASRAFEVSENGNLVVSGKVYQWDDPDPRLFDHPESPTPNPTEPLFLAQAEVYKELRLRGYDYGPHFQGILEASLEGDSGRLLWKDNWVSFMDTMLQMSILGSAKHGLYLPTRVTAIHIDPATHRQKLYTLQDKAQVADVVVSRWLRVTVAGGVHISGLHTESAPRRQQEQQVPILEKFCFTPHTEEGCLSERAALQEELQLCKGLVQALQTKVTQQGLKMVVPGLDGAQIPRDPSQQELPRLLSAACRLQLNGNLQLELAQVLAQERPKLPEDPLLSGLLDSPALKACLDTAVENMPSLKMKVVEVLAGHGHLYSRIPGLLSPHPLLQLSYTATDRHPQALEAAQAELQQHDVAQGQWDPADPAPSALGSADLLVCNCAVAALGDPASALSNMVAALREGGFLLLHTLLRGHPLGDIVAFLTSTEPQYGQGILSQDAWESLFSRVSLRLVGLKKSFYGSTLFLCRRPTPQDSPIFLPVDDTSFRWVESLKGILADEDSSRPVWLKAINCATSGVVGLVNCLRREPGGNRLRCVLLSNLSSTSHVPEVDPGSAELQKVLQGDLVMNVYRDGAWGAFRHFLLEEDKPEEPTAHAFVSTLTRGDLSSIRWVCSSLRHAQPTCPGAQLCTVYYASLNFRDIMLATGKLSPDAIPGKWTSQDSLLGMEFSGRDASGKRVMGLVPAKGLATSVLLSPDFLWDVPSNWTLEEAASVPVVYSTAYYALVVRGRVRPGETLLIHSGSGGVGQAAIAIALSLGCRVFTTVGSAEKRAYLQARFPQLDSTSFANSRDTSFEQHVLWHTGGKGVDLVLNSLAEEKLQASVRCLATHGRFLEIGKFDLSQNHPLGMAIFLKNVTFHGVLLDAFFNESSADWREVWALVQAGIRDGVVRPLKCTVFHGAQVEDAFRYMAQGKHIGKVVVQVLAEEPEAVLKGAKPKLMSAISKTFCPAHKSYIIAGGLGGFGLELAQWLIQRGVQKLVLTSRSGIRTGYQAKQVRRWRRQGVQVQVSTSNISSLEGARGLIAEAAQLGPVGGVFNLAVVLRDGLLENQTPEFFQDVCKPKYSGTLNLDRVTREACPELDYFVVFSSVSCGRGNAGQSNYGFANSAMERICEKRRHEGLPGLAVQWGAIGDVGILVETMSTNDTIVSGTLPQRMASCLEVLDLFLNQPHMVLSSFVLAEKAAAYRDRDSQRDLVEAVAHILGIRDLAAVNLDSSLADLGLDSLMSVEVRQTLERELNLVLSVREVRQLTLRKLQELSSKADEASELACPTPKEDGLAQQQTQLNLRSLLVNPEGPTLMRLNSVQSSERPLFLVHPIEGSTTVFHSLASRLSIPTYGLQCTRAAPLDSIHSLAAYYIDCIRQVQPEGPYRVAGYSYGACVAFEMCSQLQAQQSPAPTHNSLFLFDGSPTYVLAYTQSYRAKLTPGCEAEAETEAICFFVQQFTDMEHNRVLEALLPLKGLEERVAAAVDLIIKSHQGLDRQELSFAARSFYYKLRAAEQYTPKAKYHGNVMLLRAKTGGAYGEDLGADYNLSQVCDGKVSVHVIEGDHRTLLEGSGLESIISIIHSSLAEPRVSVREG
T7 sequence (Q92731 whole entry): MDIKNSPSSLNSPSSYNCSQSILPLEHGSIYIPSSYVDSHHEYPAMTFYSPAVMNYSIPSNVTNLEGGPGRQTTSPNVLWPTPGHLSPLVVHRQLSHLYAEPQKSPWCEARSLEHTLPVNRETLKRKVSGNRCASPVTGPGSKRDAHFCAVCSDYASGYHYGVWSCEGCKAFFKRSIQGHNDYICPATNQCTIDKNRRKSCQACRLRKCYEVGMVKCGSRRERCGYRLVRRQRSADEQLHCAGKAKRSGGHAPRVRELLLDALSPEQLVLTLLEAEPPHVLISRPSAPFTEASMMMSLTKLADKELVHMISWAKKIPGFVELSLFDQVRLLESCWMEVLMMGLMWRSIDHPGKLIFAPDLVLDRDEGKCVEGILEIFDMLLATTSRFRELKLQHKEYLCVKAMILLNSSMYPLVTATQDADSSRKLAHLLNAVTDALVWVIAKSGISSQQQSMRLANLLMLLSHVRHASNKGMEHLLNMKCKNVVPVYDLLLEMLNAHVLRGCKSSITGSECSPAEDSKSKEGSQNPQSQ
T1 sequence (P11940 whole entry, the tested form may be a part): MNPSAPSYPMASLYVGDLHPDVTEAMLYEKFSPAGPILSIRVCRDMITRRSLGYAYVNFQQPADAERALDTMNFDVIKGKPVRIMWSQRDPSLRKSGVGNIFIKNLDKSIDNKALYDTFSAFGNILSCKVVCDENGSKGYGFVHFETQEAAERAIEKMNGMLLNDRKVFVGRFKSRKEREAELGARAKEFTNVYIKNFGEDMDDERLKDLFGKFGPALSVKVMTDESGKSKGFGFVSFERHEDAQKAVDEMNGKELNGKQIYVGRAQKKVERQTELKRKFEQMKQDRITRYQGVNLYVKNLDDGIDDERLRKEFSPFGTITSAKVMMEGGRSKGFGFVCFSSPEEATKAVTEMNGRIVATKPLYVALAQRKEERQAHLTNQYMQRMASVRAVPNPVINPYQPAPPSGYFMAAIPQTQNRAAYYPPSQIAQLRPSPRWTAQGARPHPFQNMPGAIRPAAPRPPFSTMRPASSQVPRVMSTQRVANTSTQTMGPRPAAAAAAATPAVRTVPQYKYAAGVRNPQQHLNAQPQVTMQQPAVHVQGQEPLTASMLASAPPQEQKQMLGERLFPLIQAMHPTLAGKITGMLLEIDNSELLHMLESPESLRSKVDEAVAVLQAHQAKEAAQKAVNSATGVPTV

Structure (SMILES): CCOC(=O)COc1ccc2c(C#N)c3ccccn3c2c1
- IC50 [1]: > 66 µM (inactive)
- IC50 [2]: > 50 µM (not active)
- IC50 [3]: > 66 µM (inactive)

Structure (SMILES): COc1cc(/C=N/NC(=O)c2cc3ccccc3cc2O)ccc1OCCN1CCCCC1
- IC50 [2]: > 50 µM (not active)
- CC50 (Vero): > 40 µM (active)

Structure (SMILES): Cc1ccc(S(=O)(=O)N(C)C[C@@H]2Oc3cc(Br)ccc3S(=O)(=O)N([C@H](C)CO)C[C@@H]2C)cc1
- AC50 [4]: 7.1 µM (active)
- AC50 [5]: 26.6 µM (active)
- AC50 [6]: 4.58 µM (active)

Structure (SMILES): CCC(=O)N1NC(=C2C(=O)N(C)C(=O)N(C)C2=O)CC1c1ccccc1 (stereo not drawn)
- EC50 [7]: 4.93 µM (active)
- EC50 (Streptococcus): 8.9 µM (active)
- IC50 (Aminopeptidase N): 41.9 µM (active)

Structure (SMILES): CCCc1nn(-c2ccccc2)c2c1C(c1cccs1)C(C#N)=C(N)O2 (stereo not drawn)
- AC50 [8]: 12.6 µM (active)
- EC50 (Protein RecA): 3.58 µM (active)
- IC50 (Beta-galactosidase): > 80 µM (inactive)

Structure (SMILES): O=C(/C=C/c1ccccc1)N1CCN(c2cccc(Cl)n2)CC1
- IC50 (Beta-galactosidase): > 80 µM (inactive)

Structure (SMILES): Nc1ccc2c(c1)OC1(CCCCC1)O2
- IC50 [2]: > 50 µM (not active)

Structure (SMILES): O=C(c1cc(COc2cccc(C(F)(F)F)c2)on1)N1C[C@@H]2CCC[C@H]1C2
- IC50 (Fatty acid synthase [9]): 10.7 µM (active)
- IC50 (Fatty acid synthase [10]): 12.4 µM (active)

Structure (SMILES): NC(=O)c1ccsc1NC(=O)COC(=O)Cc1ccsc1
- IC50 (Estrogen receptor beta [11]): 5.55 µM (active)
- IC50 (Estrogen receptor beta [12]): 1.84 µM (not active)

Structure (SMILES): CCc1ccc2oc(C(=O)N3CCN(c4ccccc4OC)CC3)cc(=O)c2c1
- IC50 (Beta-galactosidase): > 80 µM (inactive)

Structure (SMILES): COc1ccc2ccc3c(c2c1)N=CC1(O3)N(C)c2ccccc2C1(C)C (stereo not drawn)
- AC50 [8]: 2.96 µM (active)
- EC50 (Protein RecA): 36.2 µM (active)
- IC50 [2]: > 50 µM (not active)

Structure (SMILES): COc1cccc(-c2[nH]nc3c2C(c2ccoc2)C(C#N)=C(N)O3)c1 (stereo not drawn)
- AC50 [8]: 8.72 µM (active)
- EC50 (Protein RecA): 1.07 µM (active)
- IC50 (Estrogen receptor beta [11]): 20 µM (active)
- IC50 (Leucine aminopeptidase): 76.8 µM (active)
- IC50 (Estrogen receptor beta [12]): > 50 µM (not active)

Structure (SMILES): CCOC(=O)c1c(-c2cccs2)csc1N
- IC50 [2]: > 50 µM (not active)

Structure (SMILES): COc1ccc(/C=C(\C#N)C(=O)Nc2cc(S(=O)(=O)N3CCOCC3)ccc2N2CCCC2)cc1
- IC50 (Beta-galactosidase): > 80 µM (inactive)

Structure (SMILES): CN(CCOc1ccccc1)CC(=O)Nc1ccc([N+](=O)[O-])cc1Cl
- IC50 (Fatty acid synthase [9]): 12.7 µM (active)
- IC50 (Fatty acid synthase [10]): 9.54 µM (active)
